# Reference: patent publication US20130172378A1, “Combination of BRAF and VEGF Inhibitors” (GlaxoSmithKline LLC, priority 2010, published 2013)
# Experiments:
# Format in all cases: in vivo, CD-1 nude mice
# [1] = tested on: A375P F11s tumor xenografts (human melanoma, BRAF V600E); assay: A375P F11s melanoma tumor xenograft efficacy in nude mice
# Procedure: (§1) Female CD-1 nude mice of 6-8 weeks in age were used in these studies; all mice were obtained from Charles River Laboratories (Wilmington, Del.). Animals were housed in pathogen free conditions and handled with aseptic technique.
# The A375P F11s cell lines were grown in RPMI growth medium supplemented with 10% fetal bovine serum (FBS), 1% sodium pyruvate and 1% penicillin-streptomycin in a humidified 37° C. chamber with 5% CO2. Cells were expanded to obtain the large numbers of cells required for each injection; cells were grown in log phase, without reaching confluency and passaged regularly.
# Detached cells were collected, centrifuged (1500 rpm, 5 min, 4° C.) and rinsed to remove the trypsin solution. Cells were re-suspended in PBS without magnesium or calcium and counted.
# Compounds were administered in vehicles as described below.
# (§2) Mice with similar sized tumors (100-300 mm^3) were identified. The length and width of the tumors were measured by handheld calipers and body weights of the mice were measured using a bench top weighing scale. Tumor volumes were calculated based on the following formula: tumor volume=(Length×Width^2)/2. Mice were block randomized into the required number of dosing groups (n=8 mice/group). The randomization process ensured that the average tumor volume for each dosing group was approximately equal at the beginning of the study and mice with differing tumor volumes were evenly distributed. Mice were placed in groups of eight accordingly and dosed with either vehicle or compound for 36 days either once or twice daily, as summarised in the table below. Mice were weighed and tumors measured twice weekly for the duration of the study using Studylog animal study management software (Studylog Systems, Inc., South San Francisco, Calif., USA).
# Tumor volumes were calculated based on the following formula: tumor volume=(Length×Width^2)/2. Tumor growth curves were created from the mean±standard error of the mean, with n=8 animals per group. The percentage of tumor growth inhibition was calculated on the final day of dosing using the following formula: 1−(tumor volume in drug-treated population/tumor volume in vehicle-treated control population).
# [2] = Body weight of nude mice bearing A375P F11s xenografts during treatment; conditions: in g (unit assumed)
# Procedure: as §1, §2
# [3] = tested on: A375P F11s tumor xenografts (human melanoma, BRAF V600E); assay: A375P F11s melanoma tumor xenograft efficacy in nude mice; remark: listed apart in the source
# [4] = group 3: Compound B 10 mg/kg PO QD, study day 7
# [5] = group 4: Compound B 30 mg/kg PO QD, study day 3
# [6] = group 4: Compound B 30 mg/kg PO QD, study day 9
# [7] = group 4: Compound B 30 mg/kg PO QD, study day 22
# [8] = group 4: Compound B 30 mg/kg PO QD, study day 25
# [9] = group 4: Compound B 30 mg/kg PO QD, study day 35
# [10] = group 3: Compound B 10 mg/kg PO QD, study day 0
# [11] = group 3: Compound B 10 mg/kg PO QD, study day 3
# [12] = group 3: Compound B 10 mg/kg PO QD, study day 9
# [13] = group 3: Compound B 10 mg/kg PO QD, study day 15
# [14] = group 3: Compound B 10 mg/kg PO QD, study day 18
# [15] = group 3: Compound B 10 mg/kg PO QD, study day 22
# [16] = group 3: Compound B 10 mg/kg PO QD, study day 25
# [17] = group 3: Compound B 10 mg/kg PO QD, study day 28
# [18] = group 3: Compound B 10 mg/kg PO QD, study day 31
# [19] = group 4: Compound B 30 mg/kg PO QD, study day 0
# [20] = group 4: Compound B 30 mg/kg PO QD, study day 7
# [21] = group 4: Compound B 30 mg/kg PO QD, study day 15
# [22] = group 4: Compound B 30 mg/kg PO QD, study day 18
# [23] = group 4: Compound B 30 mg/kg PO QD, study day 28
# [24] = group 4: Compound B 30 mg/kg PO QD, study day 31
# [25] = group 4: Compound B 30 mg/kg PO QD, study day 37
structure (smiles),measurement,setting,value
"CC(C)(C)c1nc(-c2cccc(NS(=O)(=O)c3c(F)cccc3F)c2F)c(-c2ccnc(N)n2)s1 [Compound B, N-{3-[5-(2-Amino-4-pyrimidinyl)-2-(1,1-dimethylethyl)-1,3-thiazol-4-yl]-2-fluorophenyl}-2,6-difluorobenzenesulfonamide]",Mean A375P F11s tumor volume,[1]; [4],189.5 mm^3
same,Mean A375P F11s tumor volume,[1]; [5],144.2 mm^3
same,Mean A375P F11s tumor volume,[1]; [6],99.5 mm^3
same,Mean A375P F11s tumor volume,[1]; [7],116.4 mm^3
same,Mean A375P F11s tumor volume,[1]; [8],142.1 mm^3
same,Mean A375P F11s tumor volume,[1]; [9],168.1 mm^3
same,Mean body weight of nude mice,[2]; [10],25.71
same,Mean body weight of nude mice,[2]; [11],26.14
same,Mean body weight of nude mice,[2]; [4],26.13
same,Mean body weight of nude mice,[2]; [12],26.29
same,Mean body weight of nude mice,[2]; [13],25.69
same,Mean body weight of nude mice,[2]; [14],26.44
same,Mean body weight of nude mice,[2]; [15],26.00
same,Mean body weight of nude mice,[2]; [16],26.45
same,Mean body weight of nude mice,[2]; [17],26.55
same,Mean body weight of nude mice,[2]; [18],27.11
same,Mean body weight of nude mice,[2]; [19],25.49
same,Mean body weight of nude mice,[2]; [5],25.38
same,Mean body weight of nude mice,[2]; [20],25.15
same,Mean body weight of nude mice,[2]; [6],25.35
same,Mean body weight of nude mice,[2]; [21],24.46
same,Mean body weight of nude mice,[2]; [22],24.84
same,Mean body weight of nude mice,[2]; [7],24.67
same,Mean body weight of nude mice,[2]; [8],24.87
same,Mean body weight of nude mice,[2]; [23],24.79
same,Mean body weight of nude mice,[2]; [24],24.83
same,Mean body weight of nude mice,[2]; [9],24.41
same,Mean body weight of nude mice,[2]; [25],24.65
same,Mean A375P F11s tumor volume,[3]; [10],178.5 mm^3
same,Percent Inhibition of A375P F11s tumor volume compared to vehicle treated mice,[3]; [10],−3.6%
same,Mean A375P F11s tumor volume,[3]; [11],164.5 mm^3
same,Percent Inhibition of A375P F11s tumor volume compared to vehicle treated mice,[3]; [11],34.3%
same,Percent Inhibition of A375P F11s tumor volume compared to vehicle treated mice,[3]; [4],39.0%
same,Mean A375P F11s tumor volume,[3]; [12],247.5 mm^3
same,Percent Inhibition of A375P F11s tumor volume compared to vehicle treated mice,[3]; [12],36.6%
same,Mean A375P F11s tumor volume,[3]; [13],350.4 mm^3
same,Percent Inhibition of A375P F11s tumor volume compared to vehicle treated mice,[3]; [13],45.3%
same,Mean A375P F11s tumor volume,[3]; [14],469.7 mm^3
same,Percent Inhibition of A375P F11s tumor volume compared to vehicle treated mice,[3]; [14],35.4%
same,Mean A375P F11s tumor volume,[3]; [15],494.2 mm^3
same,Percent Inhibition of A375P F11s tumor volume compared to vehicle treated mice,[3]; [15],47.2%
same,Mean A375P F11s tumor volume,[3]; [16],581.5 mm^3
same,Percent Inhibition of A375P F11s tumor volume compared to vehicle treated mice,[3]; [16],46.6%
same,Mean A375P F11s tumor volume,[3]; [17],682.0 mm^3
same,Percent Inhibition of A375P F11s tumor volume compared to vehicle treated mice,[3]; [17],45.6%
same,Mean A375P F11s tumor volume,[3]; [18],830.5 mm^3
same,Mean A375P F11s tumor volume,"[3]; group 3: Compound B 10 mg/kg PO QD, study day 35","1,105.5 mm^3"
same,Mean A375P F11s tumor volume,[3]; [19],156.9 mm^3
same,Percent Inhibition of A375P F11s tumor volume compared to vehicle treated mice,[3]; [19],8.9%
same,Percent Inhibition of A375P F11s tumor volume compared to vehicle treated mice,[3]; [5],42.4%
same,Mean A375P F11s tumor volume,[3]; [20],104.1 mm^3
same,Percent Inhibition of A375P F11s tumor volume compared to vehicle treated mice,[3]; [20],66.5%
same,Percent Inhibition of A375P F11s tumor volume compared to vehicle treated mice,[3]; [6],74.5%
same,Mean A375P F11s tumor volume,[3]; [21],94.0 mm^3
same,Percent Inhibition of A375P F11s tumor volume compared to vehicle treated mice,[3]; [21],85.3%
same,Mean A375P F11s tumor volume,[3]; [22],104.4 mm^3
same,Percent Inhibition of A375P F11s tumor volume compared to vehicle treated mice,[3]; [22],85.6%
same,Percent Inhibition of A375P F11s tumor volume compared to vehicle treated mice,[3]; [7],87.6%
same,Percent Inhibition of A375P F11s tumor volume compared to vehicle treated mice,[3]; [8],87.0%
same,Mean A375P F11s tumor volume,[3]; [23],148.7 mm^3
same,Percent Inhibition of A375P F11s tumor volume compared to vehicle treated mice,[3]; [23],88.1%
same,Mean A375P F11s tumor volume,[3]; [24],166.1 mm^3
same,Mean A375P F11s tumor volume,[3]; [25],207.6 mm^3
"Cc1ccc(Nc2nccc(N(C)c3ccc4c(C)n(C)nc4c3)n2)cc1S(N)(=O)=O [Compound A, 5-[[4-[(2,3-dimethyl-2H-indazol-6-yl)methylamino]-2-pyrimidinyl]amino]-2-methylbenzenesulfonamide]",Mean body weight of nude mice,"[2]; group 2: Compound A 100 mg/kg PO BID, study day 0",24.98
same,Mean body weight of nude mice,"[2]; group 2: Compound A 100 mg/kg PO BID, study day 3",25.13
same,Mean body weight of nude mice,"[2]; group 2: Compound A 100 mg/kg PO BID, study day 7",25.63
same,Mean body weight of nude mice,"[2]; group 2: Compound A 100 mg/kg PO BID, study day 15",24.83
same,Mean body weight of nude mice,"[2]; group 2: Compound A 100 mg/kg PO BID, study day 18",25.35
same,Mean body weight of nude mice,"[2]; group 2: Compound A 100 mg/kg PO BID, study day 22",24.71
same,Mean body weight of nude mice,"[2]; group 2: Compound A 100 mg/kg PO BID, study day 25",24.79
same,Mean body weight of nude mice,"[2]; group 2: Compound A 100 mg/kg PO BID, study day 28",24.91
same,Mean body weight of nude mice,"[2]; group 2: Compound A 100 mg/kg PO BID, study day 35",24.95
same,Mean body weight of nude mice,"[2]; group 2: Compound A 100 mg/kg PO BID, study day 37",25.00
